Test results reported in patent US20100145901A1, “MATRIX MARKER MODEL AND METHODS FOR ASSESSING AND TREATING ARTHRITIS AND RELATED DISORDERS” (priority 2007, published 2010).

Experiments:
[1] = test system: RA patients; conditions: 25 studies, 3907 RA patients; cited from earlier work
[2] = test system: patients with active RA; assay: ASPIRE trial: joint damage progression (modified Sharp/van der Heijde score) baseline to week 54; assay type: in vivo, human
Experimental: Details on the patient population and study protocol on which we have tested our model have been presented previously (StClair et al. Arthritis Rheum 2004; 50:3432-3443). […] In addition, patients had >=10 swollen joints (66 joint count), >=12 tender joints (68 joint count), and >=1 of the following: rheumatoid factor (RF) positivity, radiographic erosions of the hands or feet, or serum C-reactive protein (CRP) level >=2.0 mg/dl.
The institutional review boards at participating sites approved the study protocol. All patients provided written informed consent. Patients were randomized in a 4:5:5 ratio to receive placebo, infliximab 3 mg/kg, or infliximab 6 mg/kg at weeks 0, 2, and 6, and then every 8 weeks through week 46. All patients were treated with oral MTX starting at 7.5 mg/week at week 0; MTX doses were increased by 2.5 mg every 1-2 weeks to reach 15 mg/week by week 4 and 20 mg/week by week 8. MTX was administered to all patients through week 54. Patients also received folic acid >=5 mg/week.
The American College of Rheumatology core set variables (Felson A&R 1993), including numbers of tender and swollen joints, were documented at each visit. The 28 joint count (Prevoo A&R 1995) was used in the creation of our model as it is more appropriate and more frequently used in daily clinical practice as compared to the 66/68 count. The Westergren method (Koepke 1988) was used to determine erythrocyte sedimentation rate (ESR) at weeks 0, 6, 30, and 54; normal ESR levels were <=20 mm/hour for women and <=15 mm/hour for men. CRP levels (normal <0.8 mg/dl) were measured by nephelometry (Stites 1997) at screening and each visit thereafter. (If possible RF testing should be specified as different IG's tested for have different correlation with radiological progression. Radiographs of the hands and feet were obtained within 4 weeks of receiving the first dose of the study drug, at weeks 30 and 54, and upon use of a protocol-prohibited medication or study termination, as applicable. Joint damage was assessed by change in the modified Sharp/van der Heijde score (SHS) (vander Heijde Lancet 1989) from baseline to week 54.
Of the 1,049 patients enrolled in the ASPIRE trial, 1,004 were prospectively identified as eligible for inclusion in the efficacy analyses prior to unblinding (StClair A&R 2004). […] Summary statistics of median, mean, and interquartile ranges are presented for continuous variables. Spearman correlation analyses were performed to evaluate the association between baseline covariates and changes in radiographic scores. Tests for statistical significance were performed using analysis of variance on van der Waerden normal scores. For categorical response parameters, treatment group comparisons were made using the chi-square test. […]

Compound | change in erosion scores versus placebo [1] | also measured
Cc1oncc1C(=O)Nc1ccc(C(F)(F)F)cc1 [leflunomide] | statistically better than placebo | –
interleukin 1 receptor antagonist: interleukin 1 receptor antagonist | statistically better than placebo | –
CN(Cc1cnc2nc(N)nc(N)c2n1)c1ccc(C(=O)N[C@@H](CCC(=O)O)C(=O)O)cc1 [MTX, methotrexate] | statistically better than placebo | change in the SHS from baseline to week 54 (mean+/−SD) ([2]; MTX alone): 3.7+/−9.6; patients showing an increase in radiographic score ([2]; baseline to week 54): 61%; patients showing an increase of radiographic score of at least 5 SHS units ([2]; baseline to week 54): 23%; patients with SHS of 0 at baseline who did not progress ([2]; baseline to week 54): 63%
infliximab | statistically better than placebo | rank versus other agents in preventing radiological progression [1]: superior to the last five agents
CC(=O)OC[C@H]1O[C@@H]([S-])[C@H](OC(C)=O)[C@@H](OC(C)=O)[C@@H]1OC(C)=O.CCP(CC)CC.[Au+] [auranofin] | statistically better than placebo | –
O=C(O)c1cc(/N=N/c2ccc(S(=O)(=O)Nc3ccccn3)cc2)ccc1O [SSZ, sulphasalazine] | statistically better than placebo | –
